In paper PMC4267622, “Pin1-mediated Sp1 phosphorylation by CDK1 increases Sp1 stability and decreases its DNA-binding activity during mitosis” (Nucleic Acids Research, 2014):

Columns and labels:
[1] = tested on: Sp1-binding probe of p21^WAF1/CIP1 promoter; experiment: DNA affinity precipitation assay (DAPA); conditions: mitotic extract of HeLa cells, 4°C, 1 h, three independent experiments
Procedure: Cell lysate incubated with 1 μg of binding probes in 500 μl binding of buffer (2 mM MgCl2, 60 mM KCl, 20 mM Tris-HCl pH 7.8, 5% glycerol, 0.5 mM EDTA and 0.02% NP-40). After incubation for 1 h at 4°C, the mixture was incubated with 30 μl of streptavidin-agarose beads (GE Healthcare Life Sciences) for 1 h at 4°C. The mixture was washed three times by binding buffer. The proteins in the beads were eluted by 2X sample buffer and analysed by SDS-PAGE and immunoblotting. The Sp1-binding probe 5′-[…]-3′, localized from −82 to −50 bp within the promoter of p21^WAF1/CIP1, was biotinylated at 5′ termini and then annealed with complementary strands.

p21^CIP/WAP = p21^CIP/WAP luciferase activity assay; assay type: cell-based; conditions: HeLa, vs GFP-Sp1 (1–785)
Procedure: (§1) HeLa cells and mouse embryonic fibroblasts (MEFs) were cultured in DMEM containing 10% of FBS, 100μg/ml streptomycin sulfate and 100 units/ml penicillin G sodium at 37°C, 5% CO2. For transfection of GFP-Sp1, GFP-Sp1-T739A, GFP-Sp1-T739D, GFP-Sp1 (1-740), GFP-Sp1-4A, GFP-Sp1-4D, HA-Sp1, HA-Sp1-4A (S720A, T723A, T737A and T739A), HA-Sp1-4D (S720D, T723D, T737D and T739D), pGL2, pGL2-p21, Sp1 shRNA, or Pin1 shRNA, 2 μg of plasmids was incubated with 2 μl of Lipofectamine in 200 μl of OPTI-MEM for 30 min in room temperature. After incubation, the mixture of plasmids and Lipofectamine in OPTI-MEM was added into 2 ml of OPTI-MEM. The cells were incubated with the mixture of plasmids and Lipofectamine for 6 h. The cells were then incubated in fresh Dulbecco's modified Eagle's medium (DMEM) for 18 or 36 h. The cells were collected for immunoprecipitation or immunoblotting.

HeLa cells [2] = experiment: Protein level of GFP-Sp1 constructs in HeLa cells (western blot); assay type: cell-based; conditions: equal amount of plasmids
Procedure: as §1
Cell lysates or immunoprecipitation samples were fractionated by sodium dodecyl sulfate-polyacrylamide gel electrophoresis (SDS-PAGE) and transferred to polyvinylidene fluoride (PVDF) membrane using a transfer apparatus according to the manufacturer's protocols (Bio-Rad). After incubation with 3% non-fat milk or 2% bovine serum albumin in Tris-buffered Saline with Tween 20 buffer (TBST buffer, 10 mM Tris-HCl pH 8.0, 150 mM NaCl and 0.5% Tween 20) for 1 h, membranes were incubated with antibodies at 4°C overnight. […]

RNF4 = RNF4 co-immunoprecipitation with GFP-Sp1 constructs; assay type: binding; conditions: HeLa, anti-GFP immunoprecipitation, vs full-length Sp1 (1–785)
Procedure: Cell lysates were prepared by using mRIPA buffer (50 mM Tris-HCl, pH 7.8, 150 mM NaCl, 5 mM ethylenediaminetetraacetic acid (EDTA), 0.1% Triton-X100, 0.05% NP-40). The lysates were incubated with anti-Sp1 (1:500), anti-CDK1 (1:200), anti-Pin1 (1:250), anti-HA tag (1:250), or anti-GFP tag (1:200) antibodies at 4°C for 1 h. After 1 h incubation, the mixture was incubated with Protein A or G Sepharose agarose beads at 4°C for 1 h. The beads were collected and washed three times by mRIPA buffer. The beads were added 2X electrophoresis sample buffer and analysed by immunoblotting.

Pin1 R14A/C113A mutant = experiment: X-ray crystallography of Sp1 peptide with Pin1 R14A/C113A; assay type: binding; conditions: ablated isomerase activity; co-crystallization, 10-fold peptide, 4°C for 4 h
Procedure: (§2) Additionally, two other point mutants of Pin1, K63A and C113A, which are PPIase-activity-deficient, were generated and used in the crystallographic experiments ([42]). For the crystallization and the thermodynamic parameters of Pin1 and Sp1 peptide binding analysis, protein expression and crystallization of Pin1 was performed in slightly modified as described previously ([41]). In brief, the gene for Pin1 was cloned into pET28a with an N-terminal His12-tag and a thrombin cleavage site. R14A, R14A/K63A and R14A/C113A mutants of Pin1 were generated using the PCR-based QuikChange site-directed mutagenesis kit (Agilent). The correct construct was transformed into E. coli BL-21 (DE3) competent cells for protein expression. Transformed BL21 (DE3) bacteria were grown in Luria Bertani (LB) medium containing […] kanamycin at 30°C. Bacteria were induced with 1 mM isopropyl β-D-thiogalactoside (IPTG) overnight at 20°C. Pin1 proteins were purified by Ni^2+-nitrilotriacetic acid affinity chromatography, digested with thrombin and further purified by second run of Ni^2+-nitrilotriacetic acid affinity chromatography. The protein was prepared at 10–20 mg/ml in 10mM HEPES pH 7.5 containing 100 mM NaCl and 1 mM DTT for crystallization. […]
(§3) All crystals were flash-cooled to 100 K in a stream of cold nitrogen prior to data collection. […] The electron density was calculated by Refmac5 ([43]). […]

Pin1 = experiment: Isothermal titration calorimetry binding of Sp1 peptides to Pin1; conditions: 25°C
Procedure: Additionally, two other point mutants of Pin1, K63A and C113A, which are PPIase-activity-deficient, were generated and used in the crystallographic experiments ([42]). For the crystallization and the thermodynamic parameters of Pin1 and Sp1 peptide binding analysis, protein expression and crystallization of Pin1 was performed in slightly modified as described previously ([41]). In brief, the gene for Pin1 was cloned into pET28a with an N-terminal His12-tag and a thrombin cleavage site. R14A, R14A/K63A and R14A/C113A mutants of Pin1 were generated using the PCR-based QuikChange site-directed mutagenesis kit (Agilent). The correct construct was transformed into E. coli BL-21 (DE3) competent cells for protein expression. Transformed BL21 (DE3) bacteria were grown in Luria Bertani (LB) medium containing […] kanamycin at 30°C. Bacteria were induced with 1 mM isopropyl β-D-thiogalactoside (IPTG) overnight at 20°C. Pin1 proteins were purified by Ni^2+-nitrilotriacetic acid affinity chromatography, digested with thrombin and further purified by second run of Ni^2+-nitrilotriacetic acid affinity chromatography. The protein was prepared at 10–20 mg/ml in 10mM HEPES pH 7.5 containing 100 mM NaCl and 1 mM DTT for crystallization. Crystals were grown from a drop composed of […] of protein solution and […] of reservoir solution consisting of 2.0–2.5 M (NH4)2SO4, 1–2% (w/v) PEG 400 and 1–2 mM DTT in 0.1M HEPES buffer pH 7.5 equilibrated at 4°C against 0.5 ml of reservoir solution using the hanging-drop vapor-diffusion method. Crystals of Pin1 in complex with Sp1 peptides were obtained in co-crystallization experiments with the Pin1 protein pre-mixed with 10-fold Sp1 peptide and incubated at 4°C for 4 h before crystallization.
Thermodynamic parameters of Pin1 and Sp1 peptide binding were determined using a Micro-Cal iTC200 (GE Healthcare Life Sciences). All samples were filtered with […] cutoff filters (Millipore). The buffer for Pin1 and Sp1 peptide solutions consisted of 10 mM HEPES pH 7.5, 100 mM NaCl and 1 mM DTT. A […] solution of Sp1 peptide was directly titrated into a solution of […] Pin1 in […] aliquots. The experiments were performed at 25°C. Data were then analysed using the software origin.
To confirm that Pin1 indeed affects the C-terminal conformation of Sp1, Pin1 was purified and oligopeptides of the region 735–745 of Sp1, with or without phosphate at Thr739, were synthesized for ITC and X-ray crystallography experiments (Figure 3). […] Furthermore, two other point mutants of Pin1, K63A and C113A, which are PPIase-activity-deficient, were generated and used in the crystallographic experiments ([42]).
Figure 3. Pin1 recruitment alters the conformation of C-terminal Sp1. (A) The binding analyses of Thr739-Sp1 (left panel) and Thr739(p)-Sp1 (right panel) peptides to Pin1 were determined by ITC. Representative plots from an ITC experiment are shown with raw data in the upper panel and curve fit in the lower panel. The Thr739-Sp1 or Thr739(p)-Sp1 peptides were titrated into the reaction cell containing Pin1 protein. […] The 2Fo–Fc electron density is shown in blue color, contoured at 1σ. […] Overall structure (i) and a close-up view of the active-site pocket of Pin1 (ii). […] Positive charges on the electrostatic surfaces are drawn in blue and negative charges in red.

Pin1 R14A mutant = experiment: X-ray crystallography of Sp1 peptide with Pin1 R14A; assay type: binding; conditions: co-crystallization, Pin1 pre-mixed with 10-fold peptide, 4°C for 4 h
Procedure: as §2, §3

HeLa cells [3] = experiment: Sp1 localisation on chromosomes during mitosis; assay type: cell-based; conditions: nocodazole 16 h
Procedure: The cells were fixed with 4% paraformaldehyde (Sigma-Aldrich) in PBS according to a method described previously ([3]). Immunostaining was conducted with primary antibodies such as anti-Sp1, anti-GFP tag (Santa Cruz Biotechnology, Santa Cruz, CA), or anti-Pin1 (Calbiochem, San Diego, CA) antibodies. The cells were then treated with Alexa Fluor 488-conjugated goat anti-mouse or rabbit immunoglobulin G (IgG) and Alexa Fluor 568-conjugated goat anti-mouse or rabbit IgG polyclonal antibodies (Jackson ImmunoResearch Laboratories Inc., West Grove, PA). Finally, the cells were mounted in 90% glycerol containing 4'-6-diamidino-2-phenylindole (DAPI) (Invitrogen), and examined using a confocal laser-scanning microscope (FluoView^TM FV 1000; Olympus, Melville, NY) or immunofluorescence microscope (Personal DV Applied Precision, Issaquah, WA). The images were analysed with softWoRx software (Applied Precision Inc.).

HeLa cells [4] = experiment: Flow cytometry with PI staining (cell cycle); assay type: cell-based; conditions: nocodazole 16 h
Procedure: The cells washed by cold PBS and then fixed in 70% alcohol or 4% paraformaldehyde at 4°C for 2 h. After fixation, the cells washed by cold PBS and treated with 0.1% TritonX-100, 10μg/ml RNase and 50 μg/ml propidium iodide for 1 h. The cells were analysed by flow cytometer (Cell Lab Quanta™ SC; Beckman Coulter or FACSCalibur; BD Biosciences).

Substance | DNA-binding activity to the p21^CIP/WAP promoter [1] | transcriptional activity of p21^CIP/WAP (p21^CIP/WAP) | protein level (HeLa cells [2]) | interaction with RNF4 (RNF4) | configurations of electron density map of bound peptide (Pin1 R14A/C113A mutant) | Ka (Pin1; ITC curve fit, 10 mM HEPES pH 7.5, 100 mM NaCl, 1 mM DTT) | N (stoichiometry of bound Thr739(p)-Sp1 peptide per Pin1 protein) (Pin1; ITC curve fit, pH 7.5) | ΔH (Pin1; ITC curve fit, pH 7.5) [kcal/mol] | ΔS (Pin1; ITC curve fit, pH 7.5) [cal/mol/K] | interaction with Pin1 (Pin1; ITC, 10 mM HEPES pH 7.5, 100 mM NaCl, 1 mM DTT) | configurations of electron density map of bound peptide (Pin1 R14A mutant) | removal from chromosomes during mitosis (HeLa cells [3]) | cells entered mitosis (HeLa cells [4]) [%]
GFP-Sp1 (1–740): GFP-Sp1 lacking the C-terminal end (741–785) | increased the DNA-binding activity of Sp1 during mitosis | increased the transcriptional activity of p21^CIP/WAP | higher than that of GFP-Sp1 (1–785) | decreased interaction between RNF4 and GFP-Sp1 (1–740) | – | – | – | – | – | – | – | – | –
Thr739(p)-Sp1 peptide: oligopeptide of the region 735–745 of Sp1, with phosphate at Thr739 | – | – | – | – | two configurations | 7.4 ± 1.4 × 10^3 M^−1 | 0.93 ± 0.25 | -6.8 ± 2.2 | -5.0 | Pin1 could interact with the Thr739(p)-Sp1 peptide | one configuration | – | –
Sp1-4D: Sp1 mutant S720D, T723D, T737D and T739D | decreased the DNA-binding activity of Sp1 to the p21^CIP/WAP promoter | – | – | – | – | – | – | – | – | – | – | completely removed from the chromosomes | 75
